Experimental data taken from ChEMBL document CHEMBL1938302, “Synthesis of novel histamine H4 receptor antagonists” (Bioorg Med Chem Lett, 2012).
Values joined by “and” are separate entries in the source; they are usually repeats but may differ in a detail not shown here. Equal entries are not always repeated. Active and inactive are the calls of the source. The rule behind the calls is not given here.

Key:
Histamine H3 receptor = Histamine H3 receptor (Homo sapiens, UniProt Q9Y5N1); assay: Binding affinity to human histamine H3 receptor
[1] = Chemical stability of the compound in methanol; format: physicochemical
Histamine H4 receptor [2] = molecular target: T1, Histamine H4 receptor (Homo sapiens, UniProt Q9H3N8); assay: Displacement of [3H]histamine from human recombinant histamine H4 receptor expressed in CHO cells coexpressing Ga15 by radioligand filtration binding assay; format: cell-based
Histamine H4 receptor [3] = molecular target: T1, Histamine H4 receptor; assay: Antagonist activity at human histamine H4 receptor expressed in HEK293 cells assessed as rev inhibition of forskolin-stimulated cAMP accumulation by CRE-betalactamase reporter gene assay; format: functional, cell-based
[4] = Oral bioavailability in rat; format: ADME, organism-based; conditions: in vivo
[5] = Volume of distribution in rat at 1 mg/kg, iv; format: ADME, organism-based; set-up: dose 1 mg/kg, route intravenous; conditions: in vivo
Rattus norvegicus [6] = assay: Clearance in rat at 1 mg/kg, iv; format: ADME, organism-based; set-up: dose 1 mg/kg, route intravenous; conditions: in vivo
[7] = Half life in rat at 1 mg/kg, iv; format: ADME, organism-based; set-up: dose 1 mg/kg, route intravenous; conditions: in vivo
[8] = Metabolic stability in human liver microsomes; format: ADME, Microsome; conditions: read-out: Stability
[9] = Metabolic stability in rat liver microsomes; format: ADME, Microsome; conditions: read-out: Stability
Rattus norvegicus [10] = assay: Volume of distribution in rat at 10 mg/kg, sc; format: ADME, organism-based; set-up: dose 10 mg/kg, route subcutaneous; conditions: in vivo
Rattus norvegicus [11] = assay: Clearance in rat at 10 mg/kg, sc; format: ADME, organism-based; set-up: dose 10 mg/kg, route subcutaneous; conditions: in vivo
[12] = Half life in rat at 10 mg/kg, sc; format: ADME, organism-based; set-up: dose 10 mg/kg, route subcutaneous; conditions: in vivo
Rattus norvegicus [13] = assay: Volume of distribution in rat at 3 mg/kg, sc; format: ADME, organism-based; set-up: dose 3 mg/kg, route subcutaneous; conditions: in vivo
[14] = Half life in rat at 3 mg/kg, sc; format: ADME, organism-based; set-up: dose 3 mg/kg, route subcutaneous; conditions: in vivo
[15] = Half life in rat; format: ADME, organism-based; conditions: in vivo

Sequence of Histamine H3 receptor (Q9Y5N1 whole entry): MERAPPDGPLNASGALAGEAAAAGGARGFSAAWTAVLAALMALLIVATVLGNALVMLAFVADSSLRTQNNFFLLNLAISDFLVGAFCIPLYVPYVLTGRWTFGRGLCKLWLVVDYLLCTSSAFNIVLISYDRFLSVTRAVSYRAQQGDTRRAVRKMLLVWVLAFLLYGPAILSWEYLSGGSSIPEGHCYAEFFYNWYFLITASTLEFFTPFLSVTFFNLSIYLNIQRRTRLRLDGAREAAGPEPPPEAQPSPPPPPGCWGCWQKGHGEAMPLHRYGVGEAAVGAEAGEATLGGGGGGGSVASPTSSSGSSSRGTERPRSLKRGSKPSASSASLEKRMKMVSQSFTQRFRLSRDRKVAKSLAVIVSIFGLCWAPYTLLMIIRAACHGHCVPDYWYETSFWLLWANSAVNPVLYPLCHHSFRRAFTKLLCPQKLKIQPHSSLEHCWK

Row | SMILES | Ki (Histamine H3 receptor) | Stability [1] | Ki (Histamine H4 receptor [2]) [nM] | Ki (Histamine H4 receptor [3]) [nM] | also measured
1 | O=C(c1nc2cc(Cl)ccc2[nH]1)N1C[C@H]2CNC[C@H]2C1 | – | – | 5080 | 8180 | –
2 | CN1C[C@@H]2CN(C(=O)c3cc4cc(Cl)cnc4[nH]3)C[C@@H]2C1 | – | – | 83 | – | –
3 | CN1C[C@@H]2CN(C(=O)c3cc4ccc(Cl)nc4[nH]3)C[C@@H]2C1 | – | – | 2090 | – | –
4 | CN1CCN(C(=O)c2cc3cccnc3[nH]2)CC1 | 36600 nM | – | 3100 | > 29900 | –
5 | Clc1ccc2[nH]c(C3=NCCN3)nc2c1 | – | Stable | – | – | inhibition (Histamine H4 receptor [2]): inactive; inhibition (Histamine H4 receptor [3]): inactive
6 | CN1C[C@@H]2CN(C(=N)c3nc4ccccc4[nH]3)C[C@@H]2C1 | 3810 nM | Unstable | 6.5 | 12.4 | –
7 | CN1C[C@@H]2CN3C(c4nc5cc(F)c(F)cc5[nH]4)=NC[C@H]3[C@@H]2C1 | – | Stable | – | – | inhibition (Histamine H4 receptor [2]): inactive; inhibition (Histamine H4 receptor [3]): inactive
8 | CN1CCN(C(=O)c2nc3cc(Cl)ccc3[nH]2)CC1 | 20000 nM | – | – | – | Vd (Rattus norvegicus [10]): 23 L/kg; clearance (Rattus norvegicus [11]): 700 mL/min/kg; half-life [12]: 42 min; microsomal CLint [8]: 19 µL/min/mg
9 | CN1C[C@@H]2CN(C(=O)c3cc4cccnc4[nH]3)C[C@@H]2C1 | – | – | 973 | – | –
10 | CN1CCN(C(=O)c2cc3cc(Cl)ccc3[nH]2)CC1 [JNJ-7777120] | 15300 nM and > 20000 nM | – | – | – | Vd (Rattus norvegicus [13]): 2.3 L/kg; half-life [14]: 12 min; half-life [15]: 42 min
11 | CN1CCN(C(=O)c2cn3cc(Cl)ccc3n2)CC1 | 28600 nM | – | 3170 | > 11400 | –
12 | CN1CCN(C(=O)c2cn3ccncc3n2)CC1 | – | – | 20100 | > 20000 | –

More lines, main results first:

Row | Ki (Histamine H3 receptor) | Stability [1] | Ki (Histamine H4 receptor [2]) [nM] | Ki (Histamine H4 receptor [3]) [nM] | SMILES | also measured
13 | 1190 nM | Unstable | 4.6 | 9.1 | CN1C[C@@H]2CN(C(=N)c3nc4cc(F)ccc4[nH]3)C[C@@H]2C1 | –
14 | – | Unstable | – | 56 | CN1C[C@@H]2CN(C(=N)c3nc4cc(Cl)ccc4[nH]3)C[C@@H]2C1 | –
15 | – | – | 1960 | 3300 | CCN1C[C@@H]2CN(C(=O)c3nc4cc(Cl)ccc4[nH]3)C[C@@H]2C1 | –
16 | – | Unstable | 49 | – | CN1C[C@@H]2CN(C(=N)c3nc4c(F)c(F)ccc4[nH]3)C[C@@H]2C1 | –
17 | – | – | 102 | 189 | CN1C[C@@H]2CN(C(=O)c3nc4ccccc4[nH]3)C[C@@H]2C1 | –
18 | 3090 nM | Unstable | 9.5 | 17.2 | CN1C[C@@H]2CN(C(=N)c3nc4cc(F)c(F)cc4[nH]3)C[C@@H]2C1 | bioavailability [4]: 20%; Vd [5]: 48 L/kg; clearance (Rattus norvegicus [6]): 31 mL/min/kg; half-life [7]: 660 min; microsomal CLint [8]: < 7 µL/min/mg
19 | 17900 nM | – | – | 236 | CN1C[C@@H]2CN(C(=O)c3nc4cc(F)c(F)cc4[nH]3)C[C@@H]2C1 | clearance (Rattus norvegicus [6]): 58 mL/min/kg; half-life [7]: 48 min; microsomal CLint [9]: 40 µL/min/mg; microsomal CLint [8]: < 7 µL/min/mg
20 | – | – | 74 | 134 | CN1C[C@@H]2CN(C(=O)c3nc4ccc(F)c(F)c4[nH]3)C[C@@H]2C1 | –
21 | 15500 nM | – | – | 145 | CN1C[C@@H]2CN(C(=O)c3nc4cc(F)ccc4[nH]3)C[C@@H]2C1 | Vd [5]: 6.1 L/kg; clearance (Rattus norvegicus [6]): 161 mL/min/kg; half-life [7]: 42 min; microsomal CLint [8]: < 7 µL/min/mg
22 | – | Unstable | 4.6 | 9.3 | Cc1c(F)ccc2nc(C(=N)N3C[C@H]4CN(C)C[C@H]4C3)[nH]c12 | –
23 | > 20000 nM | Unstable | 70 | 20 | CN1C[C@@H]2CN(C(=N)c3nc4c(F)c(F)c(F)cc4[nH]3)C[C@@H]2C1 | –
24 | 8750 nM | – | – | – | CN1C[C@@H]2CN(C(=O)c3cc4cc(Cl)ccc4[nH]3)C[C@@H]2C1 | microsomal CLint [8]: < 7 µL/min/mg
25 | – | – | 129 | 218 | CN1C[C@@H]2CN(C(=O)c3nc4cc(Cl)ccc4[nH]3)C[C@@H]2C1 | microsomal CLint [9]: 36 µL/min/mg; microsomal CLint [8]: < 7 µL/min/mg
26 | – | – | 2670 | 4490 | CC(C)N1C[C@H]2CN(C(=O)c3nc4cc(Cl)ccc4[nH]3)C[C@H]2C1 | –
27 | – | – | 52 | 97 | Cc1c(F)ccc2nc(C(=O)N3C[C@H]4CN(C)C[C@H]4C3)[nH]c12 | microsomal CLint [9]: 214 µL/min/mg; microsomal CLint [8]: < 7 µL/min/mg
